According to patent US9453837B2, “Grafted dinuclear metal complexes, and use thereof as cellular microparticle sensors” (CENTRE NATIONAL DE LA RECHERCHE SCIENTIFIQUE (CNRS), priority 2011, dated 2016):

Tested on: microparticles derived from the activation of the cell culture of HMEC1 human microvascular endothelial cells by TNF-α
Experiment: Colorimetric assay of cellular microparticles by immobilisation of the complex on a microtiter plate (sensitivity study)
Type: binding
Conditions: complex immobilised on polyglutaraldehyde-activated PVC plate; anti-CD105 antibody, peroxidase secondary antibody, ABTS; FIG. 1
Method: a) Reagents: • Glutaraldehyde 25% • Ethanolamine 16.5 M • Bicarbonate buffer (Na Bic), at pH 9.5, 1 M, to be made only by titration of a solution of NaH2CO3 (pH 8.3) with a solution of Na2CO3 at pH 11, 6. • HEPES buffer, 10 mM pH 7.4; 0.15 M NaCl • (hBPMP/Zinc)-C6H2, 150 μM
b) Protocols: • Polymerisation of glutaraldehyde: • 50 ml of a solution of 2.5% glutaraldehyde is prepared in 0.1 M Na Bic, then the mixture is placed in a sealed vial at 37° C. for 2 hours. • Adsorption of polyglutaraldehyde on the surface of polyvinyl chloride: • A microtiter plate with 96 wells is used. • 100 μL of 2.5% glutaraldehyde is deposited in each well and left for 2 hours at 22° C. The polyglutaraldehyde is removed and the surface is rinsed 3 times with water. • Immobilisation of the complex [(Zn2)(BPMP-C6H2)(μ-OH)].(ClO4)2 • The complex in 0.1 M HEPES, pH 8.2 is immobilised on the surface of the polyvinyl chloride plate for 24 hours at +22° C.: • The free aldehyde groups are saturated with 0.3 M ethanolamine by incubating the surface with this solution for 2 hours at 22° C., then the ethanolamine is eliminated by washing with water and then washing 3 times in 10 mM HEPES at pH 7.4, 0.15 M NaCl. […]
The reading is performed by means of a spectrophotometer. […]

**Q.** For “[μ-[6-amino-N-(3,5-bis((bis(2-pyridylmethyl)amino)methyl)-4-hydroxybenzyl)hexanamide]]-μ-hydroxo, dizinc, diperchlorate [Example 4]”, which “signal (initial velocity Vi of peroxidase substrate degradation) based on the quantity of microparticles” value is on record?
**A.** Its value is “specific dose-response”.
